Assay results as given in patent publication US6989387B2, “Nitro and amino substituted topoisomerase agents” (Rutgers, The State University of New Jersey, priority 2002, dated 2006).
Where two headings read alike, the source gives them in different places.

Columns and labels:
human topoisomerase I = molecular target: T1, human topoisomerase I (Homo sapiens, UniProt P11387); test: Test A: topoisomerase I-mediated DNA cleavage assay; type: biochemical; conditions: relative effective concentration, relative to topotecan = 1, producing the same cleavage of plasmid DNA in presence of human TOP1
T1 construct: unnamed fusion partner (recombinant fusion protein, T7 expression system); made in house; host or cells: E. coli
T1 sequence (P11387 1-765): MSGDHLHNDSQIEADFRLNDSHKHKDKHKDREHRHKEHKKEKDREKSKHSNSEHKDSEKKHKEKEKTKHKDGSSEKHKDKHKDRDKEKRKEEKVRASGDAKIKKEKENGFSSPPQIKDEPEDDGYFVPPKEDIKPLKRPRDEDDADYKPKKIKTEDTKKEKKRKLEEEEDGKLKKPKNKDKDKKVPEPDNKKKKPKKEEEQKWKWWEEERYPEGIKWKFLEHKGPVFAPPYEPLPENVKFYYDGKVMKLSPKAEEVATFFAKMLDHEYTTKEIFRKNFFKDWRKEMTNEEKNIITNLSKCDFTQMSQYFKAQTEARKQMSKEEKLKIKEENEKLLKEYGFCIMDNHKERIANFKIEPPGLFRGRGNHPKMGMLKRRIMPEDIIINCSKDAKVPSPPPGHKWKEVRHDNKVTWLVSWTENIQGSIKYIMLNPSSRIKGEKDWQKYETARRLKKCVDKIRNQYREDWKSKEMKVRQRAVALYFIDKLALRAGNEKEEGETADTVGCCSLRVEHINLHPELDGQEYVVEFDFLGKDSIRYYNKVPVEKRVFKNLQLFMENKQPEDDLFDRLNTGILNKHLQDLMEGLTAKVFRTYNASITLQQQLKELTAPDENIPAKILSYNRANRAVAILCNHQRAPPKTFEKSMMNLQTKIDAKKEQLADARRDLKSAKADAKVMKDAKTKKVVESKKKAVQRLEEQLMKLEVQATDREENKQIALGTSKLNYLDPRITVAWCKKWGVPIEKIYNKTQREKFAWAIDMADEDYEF
Description: Test A. Topoisomerase-Mediated DNA Cleavage Assays
Human topoisomerase I was expressed in E. Coli and isolated as a recombinant fusion protein using a T7 expression system as described by Gatto, B., et al., Cancer Res. 1996, 56, 2795–2800. Plasmid YepG was purified by the alkali lysis method followed by phenol deproteination and CsCl/ethidium isopycnic centrifugation method as described by Maniatis, T., et al., J. Molecular Cloning, a Laboratory Manual; Cold Spring Harbor Laboratory: Cold Spring Harbor, N.Y. 1982; pp 149–185. The end-labeling of the plasmid was accomplished by digestion with a restriction enzyme followed by end-filling with Klenow polymerase as previously described by Tewey, K. M., et al., Science 1984, 226, 466–468. The cleavage assays were performed as previously reported (see Gatto, B., et al., Cancer Res. 1996, 56, 2795–2800; and Wang, H., et al., Biochemistry 2001, 40; 3316–3323). The drug and the DNA in presence of topoisomerase I was incubated for 30 minutes at 37° C. The reactions were terminated by the addition of 5 μl of 5% SDS and 1 mg/ml […] with an additional 1 hour of incubation at 37° C. Samples were then alkali denatured by the addition of NaOH, EDTA, sucrose, and bromophenol blue to final concentrations of 75 mM, 2.5%, and 0.05 mg/ml, respectively, prior to loading onto a neutral agarose gel. After development of the gels, typically 24-hour exposure was used to obtain autoradiograms outlining the extent of DNA fragmentation.

RPMI8402 cells = test: Test B: MTT-microtiter plate tetrazolinium cytotoxicity assay, RPMI8402; type: cell-based, human; conditions: RPMI 8402, 96 h, read-out: Cytotoxicity (IC50; μM) RPMI8402
Procedure: (§1) The cytotoxicity was determined using the MTT-microtiter plate tetrazolinium cytotoxicity assay (MTA—See Mosmann, T., J. Immunol. Methods 1983, 65, 55–63; Carmichael, J., et al., Cancer Res. 1987, 47, 936–942; and Denizot, F., et al., J. Immunol. Methods 1986, 89, 271–277). […] The cytotoxicity assay was performed using 96-well microtiter plates. Cells were grown in suspension at 37° C. in 5% CO2 and maintained by regular passage in RPMI medium supplemented with 10% heat- inactivated fetal bovine serum, L-glutamine (2 mM), penicillin (100 U/mL), and streptomycin (0.1 mg/mL). […] For determination of IC50, cells were exposed continuously for 4 days to varying concentrations of drug, and MTT assays were performed at the end of the fourth day. […] All assays were performed at least twice in 6 replicate wells.

CPT-K5 cells = test: Test B: MTT-microtiter plate tetrazolinium cytotoxicity assay, CPT-K5; type: cell-based; conditions: Homo sapiens, CPT-K5, 96 h, read-out: Cytotoxicity (IC50; μM) CPT-K5
Procedure: as §1

Row | SMILES | TOP1-mediated DNA Cleavage (REC) (human topoisomerase I) | IC50 (RPMI8402 cells; human lymphoblast RPMI8402, 4 days of continuous drug exposure, MTT) | IC50 (CPT-K5 cells) | IC50 (RPMI8402 cells; Homo sapiens) | melting point
1 | CC[C@@]1(O)C(=O)OCc2c1cc1n(c2=O)Cc2cc3ccccc3nc2-1 [Camptothecin, reference compound] | 0.5 | 0.005 µM |  |  | 
2 | CN(C)CCn1c(=O)c2ccccc2c2cnc3cc4c(cc3c21)OCO4 [Compound 3, 2,3-Methylenedioxy-5-[2-(N,N-dimethylamino)ethyl]-5H-dibenzo[c,h]1,6-naphthyridin-6-one, reference compound] | 6 |  | 0.95 µM | 0.06 µM | 
3 | CN(C)CCn1c(=O)c2cc([N+](=O)[O-])ccc2c2cnc3cc4c(cc3c21)OCO4 [Compound 4a, 8-Nitro-2,3-methylenedioxy-5-[2-(N,N-dimethylamino)ethyl]-5H-dibenzo[c,h][1,6]naphthyridin-6-one] | 0.2 |  | 0.33 µM | 0.003 µM | 219 to 220 °C
4 | CN(C)CCn1c(=O)c2cc(N)ccc2c2cnc3cc4c(cc3c21)OCO4 [Compound 4b, 8-Amino-2,3-methylenedioxy-5-[2-(N,N-dimethylamino)ethyl]-5H-dibenzo[c,h][1,6]naphthyridin-6-one] | 8.0 |  | 0.38 µM | 0.08 µM | 245 to 246 °C
5 | CN(C)CCn1c(=O)c2ccc([N+](=O)[O-])cc2c2cnc3cc4c(cc3c21)OCO4 [Compound 5a, 9-Nitro-2,3-methylenedioxy-5-[2-(N,N-Dimethylamino)Ethyl]-5H-dibenzo[c,h][1,6]naphthyridin-6-one] | 0.1 |  | 2.8 µM | 0.002 µM | 258 to 259 °C
6 | CN(C)CCn1c(=O)c2ccc(N)cc2c2cnc3cc4c(cc3c21)OCO4 [Compound 5b, 9-Amino-2,3-methylenedioxy-5-[2-(N,N-dimethylamino)ethyl]-5H-dibenzo[c,h][1,6]naphthyridin-6-one] | 0.5 |  | 1 µM | 0.025 µM | 300 to 301 °C
7 | CN(C)CCn1c(=O)c2cccc([N+](=O)[O-])c2c2cnc3cc4c(cc3c21)OCO4 [Compound 6a, 10-Nitro-2,3-methylenedioxy-5-[2-(N,N-dimethylamino)Ethyl]-5H-dibenzo[c,h][1,6]naphthyridin-6-one] | 1000 |  | > 10 µM | 4.8 µM | 189 to 190 °C
8 | CN(C)CCn1c(=O)c2cccc(N)c2c2cnc3cc4c(cc3c21)OCO4 [Compound 6b, 10-Amino-2,3-methylenedioxy-5-[2-(N,N-dimethylamino)ethyl]-5H-dibenzo[c,h][1,6]naphthyridin-6-one] | 15 |  | 3.2 µM | 0.34 µM | 223 to 224 °C
9 | CC[C@@]1(O)C(=O)OCc2c1cc1n(c2=O)Cc2cc3c(CN(C)C)c(O)ccc3nc2-1 [Topotecan, reference compound] | 1 |  | > 50 µM | 0.012 µM | 
10 | COc1cc([C@@H]2c3cc4c(cc3[C@@H](O[C@@H]3O[C@@H]5CO[C@@H](c6cccs6)O[C@H]5[C@H](O)[C@H]3O)[C@H]3COC(=O)[C@H]23)OCO4)cc(OC)c1O [VM-26, reference compound] | >1000 |  | 0.28 µM | 0.22 µM | 
